# In ChEMBL document CHEMBL5120785, “Rational design, synthesis, antiproliferative activity against MCF-7, MDA-MB-231 cells, estrogen receptors binding affinity, and computational study of indenopyrimidine-2,5-dione analogs for the treatment of breast cancer” (Bioorg Med Chem Lett, 2022):
# pIC50: −log10 of the molar value.
# Assays:
# MCF7 = test: cells; conditions: Homo sapiens, MCF7, 24 h
# Description: Antiproliferative activity against human MCF7 cells assessed as cell viability after 24 hrs by MTT assay
# Estrogen receptor = biological target: T1, Estrogen receptor (Homo sapiens, UniProt P03372); test: Binding affinity to human recombinant ERalpha by competitive fluorometric binding assay
# T1 sequence (P03372 whole entry): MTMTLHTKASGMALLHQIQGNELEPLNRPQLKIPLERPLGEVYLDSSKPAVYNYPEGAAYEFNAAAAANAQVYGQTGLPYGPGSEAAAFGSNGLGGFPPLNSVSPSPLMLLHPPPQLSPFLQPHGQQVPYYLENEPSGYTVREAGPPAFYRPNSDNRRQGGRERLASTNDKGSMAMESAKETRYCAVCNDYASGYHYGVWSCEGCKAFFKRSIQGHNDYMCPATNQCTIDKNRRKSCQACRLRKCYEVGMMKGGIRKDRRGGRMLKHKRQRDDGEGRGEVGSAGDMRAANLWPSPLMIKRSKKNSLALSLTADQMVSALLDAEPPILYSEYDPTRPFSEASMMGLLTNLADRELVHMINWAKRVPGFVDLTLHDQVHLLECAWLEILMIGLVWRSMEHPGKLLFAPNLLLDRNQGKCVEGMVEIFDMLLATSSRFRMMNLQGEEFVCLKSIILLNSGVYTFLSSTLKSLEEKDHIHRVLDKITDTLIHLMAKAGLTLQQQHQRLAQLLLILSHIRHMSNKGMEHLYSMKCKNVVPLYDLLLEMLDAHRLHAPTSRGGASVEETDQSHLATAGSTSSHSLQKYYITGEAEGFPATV
# MDA-MB-231 = test: cells; conditions: Homo sapiens, MDA-MB-231, 24 h
# Description: Antiproliferative activity against human MDA-MB-231 cells assessed as cell viability after 24 hrs by MTT assay
# Estrogen receptor beta = Estrogen receptor beta (Homo sapiens, UniProt Q92731)
# Sequence of Estrogen receptor beta (Q92731 whole entry): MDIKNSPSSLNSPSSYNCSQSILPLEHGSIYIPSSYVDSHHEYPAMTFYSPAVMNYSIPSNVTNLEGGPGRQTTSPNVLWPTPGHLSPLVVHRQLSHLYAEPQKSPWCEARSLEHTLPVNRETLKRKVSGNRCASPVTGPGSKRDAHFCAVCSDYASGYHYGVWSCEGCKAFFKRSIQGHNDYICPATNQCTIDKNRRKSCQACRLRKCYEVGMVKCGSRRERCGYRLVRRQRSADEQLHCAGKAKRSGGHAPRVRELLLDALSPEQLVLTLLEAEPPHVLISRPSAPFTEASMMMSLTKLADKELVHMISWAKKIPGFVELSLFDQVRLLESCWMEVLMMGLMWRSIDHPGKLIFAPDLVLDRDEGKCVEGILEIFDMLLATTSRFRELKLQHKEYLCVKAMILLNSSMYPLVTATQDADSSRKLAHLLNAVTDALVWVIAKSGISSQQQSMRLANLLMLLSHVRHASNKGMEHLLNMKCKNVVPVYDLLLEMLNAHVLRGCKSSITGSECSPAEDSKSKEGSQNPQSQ
# Description: Binding affinity to human recombinant ERbeta by competitive fluorometric binding assay
# HEK293 = test: Cytotoxicity against human HEK293 cells assessed as cell viability after 24 hrs by MTT assay; assay type: functional, cell-based; conditions: HEK293, 24 h
# Chorioallantoic membrane = test: Anti-angiogenesis activity in chicken embryo chorioallantonic membrane measured after 2 hrs by CAM assay; assay type: functional; conditions: Gallus gallus
# [1] = Selectivity index, ratio of IC50 for human recombinant ERbeta to human recombinant ERalpha
SMILES,pIC50 (MCF7),pIC50 (Estrogen receptor),pIC50 (MDA-MB-231),pIC50 (Estrogen receptor beta),pIC50 (HEK293),pIC50 (Chorioallantoic membrane),Ratio IC50 [1]
CN1CCN(CCN2C(=O)N(C)C3=C(C(=O)c4ccccc43)C2c2ccc(C(F)(F)F)cc2)CC1 (stereo not given),5.83,7.14,< 4.30,< 5.00,4.42,,
CN1C(=O)NC(c2ccc(OCCN3CCNCC3)cc2)C2=C1c1ccccc1C2=O (stereo not given),5.99,6.36,< 4.30,< 5.00,4.43,5.17,
CN1CCN(CCOc2ccc(C3C4=C(c5ccccc5C4=O)N(C)C(=O)N3CC(F)(F)F)cc2)CC1 (stereo not given),4.79,5.52,4.55,< 5.00,,,
CN1C(=O)N(CCN(CCO)CCO)C(c2ccc(C(F)(F)F)cc2)C2=C1c1ccccc1C2=O (stereo not given),7.09,8.40,< 4.30,6.51,< 4.30,6.07,
CN(C)CCN1C(=O)N(C)C2=C(C(=O)c3ccccc32)C1c1ccc(C(F)(F)F)cc1 (stereo not given),4.88,5.68,< 4.30,< 5.00,,,
CN1C(=O)NC(c2ccc(OCCN(CCO)CCO)cc2)C2=C1c1ccccc1C2=O (stereo not given),7.15,8.15,< 4.30,6.28,< 4.30,5.45,
CC/C(=C(\c1ccccc1)c1ccc(OCCN(C)C)cc1)c1ccccc1 [TAMOXIFEN],5.07,,4.83,,4.58,,0.054
CN1C(=O)N(CC(F)(F)F)C(c2ccc(OCCN3CCN(CC(F)(F)F)CC3)cc2)C2=C1c1ccccc1C2=O (stereo not given),5.29,6.03,< 4.30,< 5.00,,5.16,
CN1C(=O)N(N(C)CCC(Oc2ccc(C(F)(F)F)cc2)c2ccccc2)C(c2ccc(C(F)(F)F)cc2)C2=C1c1ccccc1C2=O (stereo not given),5.16,5.88,< 4.30,< 5.00,,,
CN1C(=O)NC(c2ccc(O)cc2)C2=C1c1ccccc1C2=O (stereo not given),,4.44,,< 5.00,,,
CN(Cc1cnc2nc(N)nc(N)c2n1)c1ccc(C(=O)N[C@@H](CCC(=O)O)C(=O)O)cc1 [METHOTREXATE],,,,,,5.44,
CN1C(=O)NC(c2ccc(C(F)(F)F)cc2)C2=C1c1ccccc1C2=O (stereo not given),,4.53,,< 5.00,,,
CN1CCN(CCOc2ccc(C3NC(=O)N(C)C4=C3C(=O)c3ccccc34)cc2)CC1 (stereo not given),4.84,6.31,< 4.30,< 5.00,,,
CN(C)CCOc1ccc(C2NC(=O)N(C)C3=C2C(=O)c2ccccc23)cc1 (stereo not given),4.95,5.50,4.68,< 5.00,,,
CN(CCOc1ccc(C2NC(=O)N(C)C3=C2C(=O)c2ccccc23)cc1)CCC(Oc1ccc(C(F)(F)F)cc1)c1ccccc1 (stereo not given),4.95,6.09,< 4.30,< 5.00,,,
CN1C(=O)NC(c2ccc(OCCN3CCN(CC(F)(F)F)CC3)cc2)C2=C1c1ccccc1C2=O (stereo not given),5.20,5.89,< 4.30,< 5.00,,,
CN(C)CCOc1ccc(C2C3=C(c4ccccc4C3=O)N(C)C(=O)N2CC(F)(F)F)cc1 (stereo not given),4.84,5.12,4.50,< 5.00,,,
CN1C(=O)N(CCN2CCNCC2)C(c2ccc(C(F)(F)F)cc2)C2=C1c1ccccc1C2=O (stereo not given),6.05,7.68,< 4.30,< 5.00,4.35,4.72,
